Square brackets hold non-standard residues; d marks the D form. Ends that are not written are not given here. pS = N[C@@H](COP(=O)(O)O)C(=O)O
Tests used:
β-catenin = β-catenin expression in skin tissue (qPCR, immunoblotting, immunofluorescence); format: in vivo, mouse
Experimental: 4.1) Protein extraction: 70 mg of skin tissue was placed in a 1.5 mL centrifuge tube, and 500 μL of tissue lysate RIPA containing protease inhibitor and phosphatase inhibitor was added. The tissue was placed on an ice box, pulverized by a tissue grinder, and then ultrasonically crushed to obtain a tissue suspension, which was then placed in a rotary windmill at 4° C. to be lysed for 2 h. The centrifuge was set at 12,000×g, 4° C., centrifuged for 15 min, and the supernatant was collected as the total protein.
5.1) Heating of protein samples: the total protein content of each tissue was 50 μg; calculate the volume of a corresponding protein sample, make up the volume with saline to 16 μL, then add 4 μL of 5×SDS sampling buffer, heat at 100° C. for 5 min, and then cool at room temperature and store at −20° C.
5.7) Primary antibody incubation: the cut protein bands were placed into the corresponding primary antibody and incubated at 4° C. on a shaker overnight, washed with TBST 3 times for 10 min/time.
(§1) 7.1) Dilute the specific gene amplification primers to 10 µM in ddH2O, prepare the qPCR reaction system according to the instructions in the kit and add them sequentially into a 384-well plate.
(§2) 7.3) Relative mRNA expression levels of genes were calculated by the […] relative quantification method using GAPDH as an internal reference.
9.5) Primary antibody incubation: the tissue was circled by the histochemical pen, about 50 μL of primary antibody was added dropwise to the tissue, and incubated in a wet box overnight at 4° C., washed 3 times with PBS.

[1] = JP1 stability experiment in skin-coating solvent (HPLC); format: physicochemical; settings: 14 days
Experimental: This example further explored the stability of JP1 in the skin-coating solvent. In this example, the solvent group and JP1 group were designed, and the content and molecular weight of JP1 in the skin-coating solvent were detected using high performance liquid chromatography on days 1, 3, 7, and 14, respectively, after the solution was formulated for evaluation. The prepared solutions were placed in a refrigerator at 4° C. The details of the experiments are shown in “II. JP1 Stability Experiments” of “Experimental Methods” below.
The stability of JP1 dissolved in a skin-coating solvent was tested at different time points. JP1 was prepared with the skin-coating solvent, and a solvent control group and a 10 mM JP1 group were set up. The prepared solution was stored in a refrigerator at 4° C. The five time points of 0, 1, 3, 7 and 14 days were detected by high performance liquid chromatography (HPLC), and the standard curve was plotted with the peak area as the vertical coordinate and the concentration of JP1 as the horizontal coordinate.

Wnt1, Wnt3a, Wnt7b = experiment: qPCR of the other Wnt molecules in skin tissue; format: in vivo, mouse; settings: P>0.05
Experimental: To illustrate the regulation of JP1 on the upstream Wnt ligand of β-catenin, this example intersected classical signaling pathway-related Wnt ligands and AGA-related Wnt ligands, and screened out the related Wnt ligands, including Wnt1, Wnt3a, Wnt7b, Wnt10a, and Wnt10b. In this example, qPCR was used to detect the mRNA expression of these Wnt molecules in the skin tissue of the mouse model in Example 6.
as §1, §2

MYC = experiment: qPCR of MYC mRNA in skin tissue; format: in vivo, mouse; settings: P>0.05
Experimental: as §1, §2

FPGSDRF-RGD (FPG[pS]DRFRGD) [JP1, amino acid S is phosphorylated; JWA peptide]
β-catenin immunohistofluorescence staining (β-catenin): trend consistent with the results of protein immunoblotting experiments
β-catenin protein expression (β-catenin; protein immunoblotting, dose-effect relationship for JP1): increased
β-catenin mRNA expression vs model group (β-catenin; qPCR): increased
JP1 degradation in skin-coating solvent ([1]; 10 mM JP1, 4° C.): no JP1 degradation was detected
peak area of the substance produced by degradation ([1]; skin-coating solvent, 4° C.): less than 0.5 mAU
percentage of the main peak area ([1]; skin-coating solvent, 4° C.): ~100%
mRNA levels of the other Wnt molecules among the groups (Wnt1, Wnt3a, Wnt7b): not statistically significant
MYC mRNA level, difference between groups (MYC): not statistically significant
